Measurements: patent US20110301199A1, “COMPOSITIONS AND METHODS FOR TREATING MYELODYSPLASTIC SYNDROME” (Telik, Inc., priority 2010, published 2011)

Tests used:
[1] = test system: Low to Intermediate-1 Risk Myelodysplastic Syndrome; test: Clinical study of ezatiostat hydrochloride tablets in MDS patients: adverse events (safety); assay type: in vivo, human
Procedure: Eighty-seven patients were randomized and treated at 23 investigational sites. After initial dose ranging in 14 patients, two dose levels were selected for further study. Subsequently, 37 patients were treated at 3 grams daily for two weeks followed by a one week rest period, and 36 patients were treated at 2 grams daily for three weeks followed by a one week rest period. The data on these 73 patients was pooled for this preliminary analysis.
The safety data is based on all patients treated.

[2] = test system: Low to Intermediate-1 Risk Myelodysplastic Syndrome; test: Clinical study of ezatiostat hydrochloride tablets in IPSS low to intermediate-1 risk MDS patients: hematologic improvement and efficacy; assay type: in vivo, human; settings: for significant RBC transfusion reduction: five of 11 patients; for HI-E Response Rate (95% Confidence Interval): prior DMTI Yes, N 15
Procedure: Subsequently, 37 patients were treated at 3 grams daily for two weeks followed by a one week rest period, and 36 patients were treated at 2 grams daily for three weeks followed by a one week rest period.
The median age was 72 years, with a patient population distribution of IPSS low risk (23 patients, 32%) and intermediate-1 risk (50 patients, 68%).

[3] = 1 g b.i.d. 3 weeks on & 1 week off (N = 31)
[4] = 1 g b.i.d. 3 weeks on & 1 week off, 6 responders
[5] = 1.5 g b.i.d. 2 weeks on & 1 week off (N = 29)
[6] = 1.5 g b.i.d. 2 weeks on & 1 week off, 7 responders

Question: For CCOC(=O)[C@@H](N)CCC(=O)N[C@@H](CSCc1ccccc1)C(=O)N[C@@H](C(=O)OCC)c1ccccc1 [Telintra, ethyl (2S)-2-amino-5-[[(2R)-3-benzylsulfanyl-1-[[(1R)-2-ethoxy-2-oxo-1-phenylethyl]amino]-1-oxopropan-2-yl]amino]-5-oxopentanoate], which “diarrhea, Grade 1 adverse event” value ([1]; all patients treated) is on record?
Answer: 25%

Question: What about the “diarrhea, Grade 2 adverse event” value ([1]; all patients treated) of the same compound?
Answer: 7%

Question: What about the “diarrhea, Grade 3 adverse event” value ([1]; all patients treated) of the same compound?
Answer: 3%

Question: And the “nausea, Grade 1 adverse event” value ([1]; all patients treated)?
Answer: 45%

Question: And the “nausea, Grade 2 adverse event” value ([1]; all patients treated)?
Answer: 16%

Question: What about the “nausea, Grade 3 adverse event” value ([1]; all patients treated) of the same compound?
Answer: 1%

Question: And the “vomiting, Grade 1 adverse event” value ([1]; all patients treated)?
Answer: 30%

Question: And the “vomiting, Grade 2 adverse event” value ([1]; all patients treated)?
Answer: 12%

Question: And the “vomiting, Grade 3 adverse event” value ([1]; all patients treated)?
Answer: 2%

Question: What about the “incidence of GI AEs with prior DMTI treatment” value ([1]; patients with prior DMTI treatment) of the same compound?
Answer: increased incidence

Question: And the “Duration of HI-E Response, Median (95% CI)” value ([2]; 1 g b.i.d. 3 weeks on & 1 week off)?
Answer: 46.1 (10.0-46.1) Weeks

Question: What about the “Time to HI-E Response, Max” value [2, 3] of the same compound?
Answer: 11.3 Weeks

Question: And the “Time to HI-E Response, Mean” value [2, 3]?
Answer: 8.9 (1.29) ^ Weeks

Question: What about the “Time to HI-E Response, Min” value [2, 3] of the same compound?
Answer: 8.0 Weeks

Question: And the “Duration of HI-E Response, # Censored” value [2, 4]?
Answer: 4 (66.7%)

Question: And the “Duration of HI-E Response, # Event” value [2, 4]?
Answer: 2 (33.3%)

Question: What about the “Duration of HI-E Response, Median (95% CI)” value ([2]; 1.5 g b.i.d. 2 weeks on & 1 week off) of the same compound?
Answer: 18.4 (3.1-51.0) Weeks

Question: What about the “Time to HI-E Response, Max” value [2, 5] of the same compound?
Answer: 10.0 Weeks

Question: And the “Time to HI-E Response, Mean” value [2, 5]?
Answer: 8.4 (0.72) ^ Weeks

Question: And the “Time to HI-E Response, Min” value [2, 5]?
Answer: 8.0 Weeks

Question: And the “Duration of HI-E Response, # Censored” value [2, 6]?
Answer: 2 (28.6%)

Question: What about the “Duration of HI-E Response, # Event” value [2, 6] of the same compound?
Answer: 5 (71.4%)

Question: What about the RBC transfusion independence ([2]; 4 of 38 RBC transfusion-dependent patients) of the same compound?
Answer: 11%

Question: What about the “clinically significant RBC transfusion reductions (reduction of 4 U/8 weeks, IWG 2006)” value ([2]; 11 of 38 RBC transfusion-dependent patients) of the same compound?
Answer: 29%

Question: What about the “effect of prior Revlimid treatment on HI-E response” value ([2]; logistic regression analysis) of the same compound?
Answer: enhance

Question: What about the “decrease in the odds for a HI-E response predicted by prior DMTI treatment” value ([2]; logistic regression analysis, p=0.023) of the same compound?
Answer: five-fold

Question: What about the “significant RBC transfusion reduction” value ([2]; no prior Revlimid, no prior DMTI) of the same compound?
Answer: 45%

Question: What about the “complete remission continued following discontinuation of therapy” value ([2]; one patient) of the same compound?
Answer: more than 12 months

Question: What about the “HI-E Response Rate (95% Confidence Interval)” value ([2]; prior Revlimid No) of the same compound?
Answer: 0.0% (0.0%-21.8%)

Question: What about the “HI-E Response Rate (95% Confidence Interval)” value ([2]; prior Revlimid Yes, listed as ezatiostat hydrochloride) of the same compound?
Answer: about 20%

Question: What about the “significant RBC transfusion reduction” value ([2]; prior Revlimid, no prior DMTI) of the same compound?
Answer: 45%

Question: What about the transfusion independence ([2]; prior Revlimid, no prior DMTI, three of 11 patients) of the same compound?
Answer: 27%
